# Several values for one entry are separate records, joined by “and”; a condition that tells them apart may be missing. Equal values may be shown once. Read-outs that look alike come from different tables or passages of the source.
# Tests used:
# Menidia beryllina = assay: 96-hour bioassay of ClO2 treated side stream effluent, Independent Bioassay Laboratory A, silverside minnow; type: in vivo; details: end of 96-hour test period; ClO2 treated side stream effluent grabs Sep. 3, 2001 12:00, 18:00, 24:00, Sep. 4, 2001 06:00
# Description: Mysidopsis bahia (Mysids) and Menidia beryllina (Silversides) were subjected to ClO2 treated effluent in these tests. Adequate volumes of chemical were brought to the site to conduct a dosing of the side stream for a 24-hour period. During this period, 2 gallons of treated water were taken at 6-hour intervals, preserved on ice and shipped to an independent bioassay laboratory (designated Independent Bioassay Laboratory A).
# Table 3(c) illustrates the survivability of the organisms at the 96-hour end-point in the test for each of the 4 samples taken (samples indicated by date and time each sample was taken.).
# Silversides = assay: In-house silverside bioassay of ClO2 treated effluent; type: in vivo, Menidia beryllina; details: numerous in-house tests, WWTP 1
# M. beryllina = assay: Bioassay of ClO2 treated WWTP 2 effluent by Laboratory 4, silverside minnow; type: in vivo, Menidia beryllina; details: for Sample survival % of M. berylina: grabs Sep. 11, 2002 10:00, 15:30, 22:00, Sep. 12, 2002 10:00
# Description: With the success of the above bioassay series that began on Aug. 20, 2002, it was concluded that a third party test was needed to verify research data. Water grabs from the Anastasia Island Treatment Facility, taken on Aug. 28, 2002, were delivered to Laboratory 4, an independent bioassay laboratory. Additional testing of the water sent to Laboratory 4 labs was also forwarded to another contract lab to document the water quality during the sample periods for the bioassays. It should be noted here that the plant was operating under their normal operating conditions and accepting both landfill leachate as well as septic tank and portable toilet waste. These were however pumped into a storage tank and then trickled into the influent stream at the headworks.
# The complete toxicological study as reference is included as attachment at the end of this study.
# With the successful bioassay conducted by the Laboratory 4 labs, a second series of water samples was taken for the repeat bioassay. These samples were taken on Sep. 11, 2002 and forwarded to Laboratory 4 labs on Sep. 12, 2002 to conduct the bioassay. The results of this test for both the water quality toxicity and the bioassay are illustrated in the Tables 13, 14 and 15.
# The complete toxicological results are provided at the end of this study as attachments.
# Staphylococcus aureus = details: 1 ppm of ClO2; contact time 60 s; cited from earlier work
# Eschericia Coli = details: cited from earlier work
# Pseudomonas aeruginosa = details: 1 ppm of ClO2; contact time 60 s; cited from earlier work
# [1] = tested on: Saccharomyces diastaticus (yeast); details: cited from earlier work
# Pediococcus Damnosus = details: cited from earlier work
substance,measurement,setting,value
Chlorine dioxide [ClO2],Percent Survival m. beryllina,Menidia beryllina,95% and 100%
same,survival of Silversides post CLO2 dosing,Silversides,always survived
same,Sample survival % of M. berylina,M. beryllina; 6.25 % Effluent,100%
same,Sample survival % of M. berylina,M. beryllina; 12.5 % Effluent,100%
same,Sample survival % of M. berylina,M. beryllina; 25 % Effluent,100% and 95%
same,Sample survival % of M. berylina,M. beryllina; 50 % Effluent,95% and 100%
same,Sample survival % of M. berylina,M. beryllina; 100 % Effluent,95% and 100%
same,M. beryllina % survival,"M. beryllina; ClO2 treated effluent grabs Aug. 28, 2002 10:15, 16:00, 22:00, Aug. 29, 2002 09:30",100%
same,Inactivation in %,Staphylococcus aureus,99.999%
same,Inactivation in %,"Eschericia Coli; 0.15 ppm of ClO2, contact time 300 s",99.9%
same,Inactivation in %,"Eschericia Coli; 0.25 ppm of ClO2, contact time 60 s",>99.999%
same,Inactivation in %,Pseudomonas aeruginosa,>99.999%
same,Inactivation in %,"[1]; 0.15 ppm of ClO2, contact time 10 min",99.9%
same,Inactivation in %,"[1]; 0.5 ppm of ClO2, contact time 10 min",>99.999%
same,Inactivation in %,"[1]; 1 ppm of ClO2, contact time 1 min",>99.999%
same,Inactivation in %,"Pediococcus Damnosus; 0.15 ppm of ClO2, contact time 20 min",99.99%
same,Inactivation in %,"Pediococcus Damnosus; 0.3 ppm of ClO2, contact time 5 min",99.99%
same,Inactivation in %,"Pediococcus Damnosus; 1 ppm of ClO2, contact time 5 min",99.999%

# Reference: patent US20050244328A1 (priority 2002, published 2005)
